# US20190099394A1, “METHODS OF IMPROVING MOTOR FUNCTION USING KETONE SUPPLEMENTATION” (priority 2016, published 2019)
# Assays:
# Sprague-Dawley rats = assay: accelerating rotarod test, four month old Sprague-Dawley rats; type: in vivo, rat; settings: for motor function (accelerating rotarod) compared to the control group: 5 g/kg once daily oral gavage or diet, at both 24 hours and 7 days after dietary treatment, FIG. 1; for time able to remain on the rotarod relative to controls fed a standard diet only: 24 hours and 7 days, FIG. 2
# Description: Four month old Sprague-Dawley rats were first acclimated to oral gavage with administration of tap water once daily for a period of 5 days. The rats were then divided into 5 groups, and fed either a standard diet (SD), a ketogenic diet (KD), or a standard diet supplemented with a once daily oral gavage of a ketone supplement (Table 1). The ketone supplement was selected from the ketone ester 1,3-butanediol-acetoacetate diester (SD+KE), the ketone salt β-hydroxybutyrate mineral salt (SD+KS), or β-hydroxybutyrate mineral salt and a medium chain triglyceride (SD+KSMCT). Ketone supplements were provided at a dose of 5 g/kg of body weight. Each group of animals was maintained on the respective diets for 7 days. The animals were evaluated for motor performance prior to the beginning of dietary treatment, 24 hours after treatment, and after 7 days of dietary treatment.
# Motor performance was evaluated using the accelerating rotarod test on a Rota Rod
# Rotamex 5 (Columbus Instruments). The rats were placed on the rod of the accelerating rotarod and the time the animals remained on the rod was measured; the rotarod was set to accelerate to 40 rpm over 180 seconds. Prior to the administration of a test, animals were trained on the rotarod for 5 consecutive days. Each day of training consisted of 3 trials, with a 2 minute rest period between each trial. Animals were placed on the rotarod and timed until they fell from the rotating rod.
# The ketone ester, 1,3-butanediol-acetoacetate diester, was synthesized as previously described (Agostino et al., Am J Physiol; 304(10): R829-R836 (2013)). The ketone salt, β-hydroxybutyrate mineral salt (Na^+/K^+-βHB mineral salt) was mixed into a 50% solution by adding approximately 375 mg/g of pure βHB with 125 mg/g of Na^+/K^+. Accordingly, each dose of the mineral salt was equal to about 1000-1500 mg of βHB, depending on the weight of the animal. Both the ketone ester and the ketone salt were developed and synthesized in collaboration with SavInd, Inc. Pharmaceutical grade medium chain triglyceride (MCT) oil (about 65% caprylic triglyceride) was purchased from Now Foods (Bloomingdale, Ill., USA). MCT was mixed in a 1:1 ratio with β-hydroxybutyrate mineral salt to obtain a ketone salt with MCT, and in a 1:1 ratio with 1,3-butanediol-acetoacetate diester to obtain […] with MCT.
# WAG/Rij rats = assay: accelerated rotarod test, WAG/Rij rats; type: in vivo, rat; settings: 2.5 g/kg total oral gavage daily for 7 days, about 45 minutes after treatment, FIG. 6 and FIG. 7
# Experimental: WAG/Rij rats were first acclimated to oral gavage with administration of tap water once daily for a period of 3 days. About 45 minutes after the water gavage on the third day, the animals performed the accelerated rotarod test to establish a baseline. After three trials on the rotarod, blood samples were taken to measure baseline glucose and ketone body levels (blood samples were collected about 60 minutes after the gavage).
# One day later, the rats were divided into 6 groups, and given an oral gavage supplement selected from water, the ketone ester 1,3-butanediol-acetoacetate diester (KE), the ketone ester with medium chain triglyceride (KEMCT), the ketone salt β-hydroxybutyrate mineral salt (KS), the ketone salt with medium chain triglyceride (KSMCT), or a combination of the ketone ester and the ketone salt (KEKS) (Table 3). Supplements containing the ketone ester or the ketone salt alone were provided at a dose of 2.5 g/kg of body weight. For supplements containing two components (e.g., a ketone ester with MCT, a ketone salt with MCT, a ketone ester with a ketone salt), each component was provided at a dose of 1.25 g/kg of body weight (for a total dosage of 2.5 g/kg). The animals were treated every day for 7 days.
# About 45 minutes after the 7th treatment, the rats were evaluated on the accelerated rotarod test. […]
# [1] = test system: glucose transporter type 1 (G1D)-deficient mice; assay: rotarod test, G1D mice; type: in vivo; settings: for motor performance on the rotarod test: 6 weeks of feeding
# Description: (§1) A group of 48 G1D mice, aged 2-5 months old, were fed for 10 weeks with either a standard rodent diet (SD), a ketogenic diet (KD), a standard diet supplemented with 10% ketone ester (SD+KE) or a standard diet supplemented with 20% ketone mineral salt (SD+KS).
# [2] = test system: glucose transporter type 1 (G1D)-deficient mice; assay: hanging wire test, G1D mice; type: in vivo; settings: fed for 10 weeks, FIG. 9
# Description: as §1
compound,measurement,setting,value
β-hydroxybutyrate mineral salt [ketone salt],motor function (accelerating rotarod) compared to the control group,Sprague-Dawley rats,improvement in motor function
same,time able to remain on the rotarod relative to controls fed a standard diet only,Sprague-Dawley rats,able to remain on the rotarod for longer periods of time
same,motor function (accelerated rotarod),WAG/Rij rats,not sufficient to improve motor function
same,motor performance on the rotarod test,[1],increase in motor function
same,motor function on the rotarod test,[1]; 10 weeks of feeding,increase in motor function
same,course of improvement on the hanging wire test,[2],rapid improvement beginning at week 1
same,strength endurance (hanging wire test),[2],improved
"CC(=O)CC(=O)OCCC(C)OC(=O)CC(C)=O (stereo not drawn) [ketone ester, 1,3-butanediol-acetoacetate diester]",motor function (accelerating rotarod) compared to the control group,Sprague-Dawley rats,improvement in motor function
same,time able to remain on the rotarod relative to controls fed a standard diet only,Sprague-Dawley rats,able to remain on the rotarod for longer periods of time
same,motor function (accelerated rotarod),WAG/Rij rats,not sufficient to improve motor function
same,motor performance on the rotarod test,[1],increase in motor performance
same,performance on the rotarod test vs baseline levels,"[1]; by 4 weeks of feeding, FIG. 8",significant increase in performance on the rotarod test
